Series [1] has as its system colorectal adenocarcinoma (DLD-1). Briefly: Cytotoxicity assay (resazurin reduction, 48 h), DLD-1. The series is classed as cell-based. Conditions: mean ± SD. On the procedure: (§1) Human lung carcinoma (A549, ATCC # CCL-185™), human colorectal adenocarcinoma (DLD-1, ATCC # CCL-221™), human breast adenocarcinoma (MCF7, ATCC # HTB-22™), human prostate adenocarcinoma (PC-3, ATCC # CCL-1435™) and human normal skin fibroblasts (WS1, ATCC # CRL-1502™) cell lines were obtained from the American Type Culture Collection (ATCC). All cell lines were cultured in minimum essential medium containing Earle's salts and L-glutamine (Mediatech Cellgro, VA), to which were added 10% fetal bovine serum (Hyclone), vitamins (1×), penicillin (100 IU/mL) and streptomycin (100 μg/mL), essential amino acids (1×), and sodium pyruvate (1×) (Mediatech Cellgro, VA). Cells were kept at 37° C. in a humidified environment containing 5% CO2.
(§2) Exponentially growing cells were plated in 96-well microplates (Costar, Corning Inc.) at a density of 5×10^3 cells per well in 100 μL of culture medium and were allowed to adhere for 16 h before treatment. Increasing concentrations of each compound in biotechnology performed certified dimethyl sulfoxide (DMSO) (Sigma-Aldrich, Cat. # D2438) and the cells were incubated for 48 h. The final concentration of DMSO in the culture medium was maintained at 0.5% (v/v) to avoid solvent toxicity. Cytotoxicity was assessed using resazurin (O'Brien, J. et al., 2000. Eur J Biochem 267(17): 5421-6) on an automated 96-well Fluoroskan Ascent F1™ plate reader (Labsystems) using excitation and emission wavelengths of 530 and 590 nm, respectively. Fluorescence was proportional to the cellular metabolic activity in each well. Survival percentage was defined as the fluorescence in experimental wells compared to that in control wells after subtraction of blank values. Each experiment was carried out twice in triplicate. IC50 results are expressed as mean±standard deviation.
(§3) In vitro cytotoxic activity of lupane-type bidesmosidic saponins was evaluated against four human cancer cell lines including lung carcinoma (A549), and colorectal (DLD-1), breast (MCF7) and prostate (PC-3) adenocarcinomas. The parent triterpenoids betulin (1) (Gauthier et al., 2006, supra), betulinic acid (2) (Kessler, J. H. et al., Cancer Lett. 2007, 251: 132-145) and the clinically used etoposide were used as positive controls. The cytotoxicity of 28-O-β-D-glucopyranosides of betulin (Gauthier et al., 2006, supra) and betulinic acid (Baglin et al., 2003, supra) was also investigated. The cell viability was assessed through resazurin reduction test (O'Brien et al, 2000, supra) after 48 hours of incubation between the compounds and cells. Since resazurin (Alamar blue) is a nontoxic dye, measurements can be obtained without killing the cells as opposed to the standard MTT assay (Bellamy, W. T. Drugs 1992, 44: 690-708). The cytotoxicity results were expressed as the concentration inhibiting 50% of the cell growth (IC50).

Series [2] deals with breast adenocarcinoma (MCF7). The experiment in a line: Cytotoxicity assay (resazurin reduction, 48 h), MCF7. The class given is cell-based, human. On the procedure: as §1, §2, §3
Series [3] concerns prostate adenocarcinoma (PC-3). Briefly: Cytotoxicity assay (resazurin reduction, 48 h), PC-3. The series is classed as cell-based, human. On the procedure: as §1, §2, §3
The test system of series [4] is lung carcinoma (A549). Conditions: human lung carcinoma; footnote g: previously reported in Gauthier et al. 2006; cited from earlier work.
Series [5] relates to lung carcinoma (A549). The experiment in a line: Cytotoxicity assay (resazurin reduction, 48 h), A549. The series is classed as cell-based, human. The method, then: as §1, §2, §3
Series [6] has as its system tested cancer cell lines (A549, DLD-1, MCF7, PC-3). Briefly: Cytotoxicity assay (resazurin reduction, 48 h), summary over the tested cancer cell lines. The class given is cell-based, human. Conditions: for IC50: range or bound over the cell lines, read-out: IC50 against the tested cancer cell lines; for cytotoxicity compared with reference or other tested compounds: tested cancer cell lines, P<0.05 where stated. The method, then: as §1, §2
as §3, with “The cytotoxicity results were expressed as the concentration inhibiting 50% of the cell growth (IC50).” left out

The test system of series [7] is colorectal adenocarcinoma (DLD-1). Conditions: human colorectal adenocarcinoma; footnote g: previously reported in Gauthier et al. 2006; cited from earlier work.
Setting [8] is: human colorectal adenocarcinoma.
Where [9] appears, read: human breast adenocarcinoma, 48 h, resazurin, mean ± SD, read-out: IC50 MCF7.
Setting [10] is: human prostate adenocarcinoma, 48 h, resazurin, mean ± SD, read-out: IC50 PC-3.
Setting [11] is: human lung carcinoma, 48 h, resazurin, mean ± SD.

Entries after “also recorded” stand apart in the source; their conditions may differ. Where two headings read alike, the source gives them in different places.

Consider “28-O-β-D-Glucopyranosyl betulin [Compound 28GBet, reference compound]”, for which the IC50 in series [1] (setting [8]), in series [2] (setting [9]), in series [3] (setting [10]) and in series [4] was over 100 µM throughout.

Take “28-O-β-D-Glucopyranosyl betulin 313-O-α-L-rhamnopyranoside [Compound 16b]”: the IC50 in series [5] (setting [11]) came to 16.8 ± 0.9 µM; in series [1] (setting [8]), 10.6 ± 0.9 µM; in series [2] (setting [9]), 9 ± 0.7 µM; in series [3] (setting [10]), 6.9 ± 0.4 µM.

For “betulinic acid 3 β-O-α-L-rhamnopyranoside [reference compound]”, in series [5] (A549, comparator named in text), the midpoint of inhibition, the IC50, lay at 3.8 µM.

With `C=C(C)[C@@H]1CC[C@]2(CO[C@@H]3O[C@@H](C)[C@H](O)[C@@H](O)[C@H]3O)CC[C@]3(C)[C@H](CC[C@@H]4[C@@]5(C)CC[C@H](O[C@@H]6O[C@@H](C)[C@H](O)[C@@H](O)[C@H]6O)C(C)(C)[C@@H]5CC[C@]43C)[C@@H]12` [Compound 22a, 28-O-α-L-Rhamnopyranosyl betulin 3β-O-α-L-rhamnopyranoside], the IC50 was 1.9 ± 0.1 µM in series [5] (setting [11]); 1.9 ± 0.1 µM in series [1] (setting [8]); 1.7 ± 0.2 µM in series [2] (setting [9]); 1.8 ± 0.1 µM in series [3] (setting [10]); 1.7 to 1.9 µM in series [6]. In series [6], the “cytotoxicity compared with reference or other tested compounds” value was “significantly more active than their parent triterpenoids; also recorded: the most potent of all tested compounds”.

As to `C=C(C)[C@@H]1CC[C@]2(C(=O)O[C@@H]3O[C@H](CO)[C@@H](O)[C@H](O)[C@H]3O)CC[C@]3(C)[C@H](CC[C@@H]4[C@@]5(C)CC[C@H](O[C@@H]6O[C@@H](C)[C@H](O)[C@@H](O)[C@H]6O)C(C)(C)[C@@H]5CC[C@]43C)[C@@H]12` [Compound 19, 28-O-β-D-Glucopyranosyl betulinic acid 3β-O-α-L-rhamnopyranoside], the IC50 in series [5] (setting [11]) worked out at 23 ± 1 µM; in series [1] (setting [8]), 11 ± 0.5 µM; in series [2] (setting [9]), 5.7 ± 0.6 µM; in series [3] (setting [10]), 11.2 ± 0.8 µM.

In the case of “28-O-α-L-Rhamnopyranosyl betulinic acid 3β-O-α-L-rhamnopyranoside [Compound 22b]”, the IC50 turned out to be 7.2 ± 0.5 µM in series [5] (setting [11]), 7.3 ± 0.3 µM in series [1] (setting [8]), 6 ± 0.6 µM in series [2] (setting [9]) and 7.2 ± 0.5 µM in series [3] (setting [10]). Also, in series [6], the “cytotoxicity compared with reference or other tested compounds” value was “significantly more active than their parent triterpenoids”.

As for `C=C(C)[C@@H]1CC[C@]2(C(=O)O[C@@H]3O[C@H](CO)[C@@H](O)[C@H](O)[C@H]3O)CC[C@]3(C)[C@H](CC[C@@H]4[C@@]5(C)CC[C@H](O[C@@H]6OC[C@H](O)[C@H](O)[C@H]6O)C(C)(C)[C@@H]5CC[C@]43C)[C@@H]12` [Compound 3, 28-O-β-D-Glucopyranosyl betulinic acid 3β-O-α-L-arabinopyranoside], the IC50 was 76 ± 4 µM in series [5] (setting [11]); 60 ± 5 µM in series [1] (setting [8]); 23 ± 1 µM in series [2] (setting [9]); 68 ± 7 µM in series [3] (setting [10]); 23 to 76 µM in series [6].

As for `C=C(C)[C@@H]1CC[C@]2(C(=O)O[C@@H]3O[C@H](CO)[C@@H](O)[C@H](O)[C@H]3O)CC[C@]3(C)C(CC[C@@H]4[C@@]5(C)CC[C@H](O)C(C)(C)[C@@H]5CC[C@]43C)[C@H]12` (stereo partly drawn) [Compound 28GBetA, 28-O-β-D-glucopyranosyl betulinic acid, reference compound], the IC50 in series [5] (setting [11]), in series [1] (setting [8]), in series [2] (setting [9]) and in series [3] (setting [10]) was over 100 µM each time.

`C=C(C)[C@@H]1CC[C@]2(CO[C@@H]3O[C@H](CO)[C@@H](O)[C@H](O)[C@H]3O)CC[C@]3(C)[C@H](CC[C@@H]4[C@@]5(C)CC[C@H](O[C@@H]6OC[C@H](O)[C@H](O)[C@H]6O)C(C)(C)[C@@H]5CC[C@]43C)[C@@H]12` [Compound 16a, 28-O-β-D-Glucopyranosyl betulin 313-O-α-L-arabinopyranoside]: the IC50 in series [5] (setting [11]) is over 100 µM; in series [1] (setting [8]) it was 19 ± 2 µM; in series [2] (breast adenocarcinoma (MCF7), read-out: IC50 against MCF7), 9.5 µM; in series [3] (PC-3 cell line, read-out: IC50 against PC-3), 5.3 µM.

For the compound `COc1cc([C@@H]2c3cc4c(cc3[C@@H](O[C@@H]3O[C@@H]5CO[C@@H](C)O[C@H]5[C@H](O)[C@H]3O)[C@H]3COC(=O)[C@H]23)OCO4)cc(OC)c1O` [Etoposide, etoposide, reference compound], the IC50 in series [5] (A549, human lung carcinoma, 48 h, resazurin, mean ± SD) was 3.4 ± 0.1 µM; in series [1] (DLD-1, human colorectal adenocarcinoma), 27 ± 5 µM.

In the case of `C=C(C)[C@@H]1CC[C@]2(C(=O)O[C@@H]3O[C@H](CO)[C@@H](O)[C@H](O)[C@H]3O)CC[C@]3(C)[C@H](CC[C@@H]4[C@@]5(C)CC[C@H](O[C@@H]6O[C@H](CO)[C@@H](O)[C@H](O)[C@H]6O)C(C)(C)[C@@H]5CC[C@]43C)[C@@H]12` [Compound 21b, 28-O-β-D-Glucopyranosyl betulinic acid 3β-O-β-D-glucopyranoside], the IC50 is over 100 µM in series [5] (setting [11]), over 100 µM in series [1] (setting [8]), 20 ± 2 µM in series [2] (setting [9]) and 66 ± 3 µM in series [3] (setting [10]). Also, the “cytotoxicity compared with betulinic acid, MCF7” value in series [2] (breast adenocarcinoma (MCF7)) is reported as “significantly more active than betulinic acid (2)”.

`C=C(C)[C@@H]1CC[C@]2(CO[C@@H]3O[C@H](CO)[C@@H](O)[C@H](O)[C@H]3O)CC[C@]3(C)[C@H](CC[C@@H]4[C@@]5(C)CC[C@H](O[C@@H]6O[C@H](CO)[C@@H](O)[C@H](O)[C@H]6O)C(C)(C)[C@@H]5CC[C@]43C)[C@@H]12` [Compound 21a, 28-O-β-D-Glucopyranosyl betulin 3β-O-β-D-glucopyranoside]: the IC50 in series [5] (setting [11]) is over 100 µM; in series [1] (setting [8]) it was 27 ± 2 µM; in series [2] (setting [9]), 14.5 ± 0.9 µM; in series [3] (setting [10]) it was over 100 µM. The “cytotoxicity compared with betulinic acid, MCF7” value in series [2] (breast adenocarcinoma (MCF7)) is “significantly more active than betulinic acid (2)”.

As to `C=C(C)[C@@H]1CC[C@]2(C(=O)O)CC[C@]3(C)[C@H](CC[C@@H]4[C@@]5(C)CC[C@H](O)C(C)(C)[C@@H]5CC[C@]43C)[C@@H]12` [Compound 2, Betulinic acid], the IC50 in series [2] (setting [9]) is 41 ± 1 µM; in series [3] (setting [10]) it was 40 ± 2 µM; in series [4], 10.3 ± 0.4 µM; in series [7], 15 µM.

These data come from patent US20110224159A1, “BIDESMOSIDIC BETULIN AND BETULINIC ACID DERIVATIVES AND USES THEREOF AS ANTITUMOR AGENTS” (Universite du Quebec a Chicoutime, priority 2008, published 2011).
